Experimental data as given in US6875750B1, “Aziridine compounds and methods of making and using them” (Max-Planck-Gesellschaft zur Foerderung der Wissenschaften …, priority 1998, dated 2005).

What was measured:
[1] = biological target: T1, C5-cytosine DNA methyltransferase M•HhaI (Haemophilus parahaemolyticus, UniProt P05102); assay: Enzyme reaction: M•HhaI-catalyzed coupling of cofactor with duplex oligodeoxynucleotide 6•7, followed by anion exchange chromatography; assay type: biochemical, Haemophilus haemolyticus; details: duplex 6•7 10 μM, M•HhaI 10 μM, compound 2 1 mM, pH 7.4, 25°C
T1 construct: made in house
T1 sequence (P05102 1-327): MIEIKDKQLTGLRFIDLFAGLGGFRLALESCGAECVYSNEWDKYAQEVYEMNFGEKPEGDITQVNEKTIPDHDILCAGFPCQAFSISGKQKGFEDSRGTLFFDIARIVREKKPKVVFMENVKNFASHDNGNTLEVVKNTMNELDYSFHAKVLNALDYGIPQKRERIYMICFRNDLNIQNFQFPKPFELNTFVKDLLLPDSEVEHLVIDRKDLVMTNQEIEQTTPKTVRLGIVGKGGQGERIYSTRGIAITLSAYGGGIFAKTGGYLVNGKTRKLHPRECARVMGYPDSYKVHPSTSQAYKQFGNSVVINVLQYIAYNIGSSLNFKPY
Description: The DNA methyltransferase M•HhaI free of cofactor was prepared as described before (B. Holz, S. Klimasauskas, S. Serva, E. Weinhold, Nucleic Acids Res. 1998, 26, 1076-1083). The enzyme-catalyzed reaction was carried out in a mixture (500 μl) of M•HhaI (5 nmol, 10 μM), duplex oligodeoxynucleotide 6•7 (5 nmol, 10 μM), compound 2 (500 nmol, 1 mM), Tris chloride (10 mM, pH 7.4), sodium chloride (50 mM), EDTA (0,5 mM) and Triton X-100 (0.01%) at 25° C. The progress of the reaction was monitored by anion exchange chromatography. Aliquots (50 μl) of the reaction mixture were withdrawn after different incubation times, and injected onto an anion exchange column (Poros 10 HQ, 10 μm, 4.6×100 mm, PerSeptive Biosystems, Germany). Compounds were eluted with aqueous potassium chloride (0 M for 5 min, followed by a linear gradient to 0.5 M in 5 min and to 1 M in 30 min, 4 ml/min) in Tris chloride buffer (20 mM, pH. 7.6).

[2] = biological target: T2, N6-adenine DNA methyltransferase M•TaqI (Thermus aquaticus, UniProt P14385); assay: Enzyme reaction: M•TaqI-catalyzed coupling of cofactor with duplex oligodeoxynucleotide 3•4, followed by anion exchange chromatography; assay type: biochemical; details: duplex 3•4 10 μM, M•TaqI 10 μM, pH 6.0, 37°C
T2 construct: made in house
Description: The DNA methyltransferase M•TaqI free of cofactor was prepared as described before (B. Holz, S. Klimasauskas, S. Serva, E. Weinhold, Nucleic Acids Res. 1998, 26, 1076-1083). The enzyme-catalyzed reaction was carried out in a mixture (500 μl) of M•TaqI (5 nmol, 10 μM), duplex oligodeoxynucleotide 3.4 (5 nmol, 10 μM), compound 2 (500 nmol, 1 mM), Tris acetate (20 mM, pH 6,0), potassium acetate (50 mM), magnesium acetate (10 mM) and Triton X-100 (0.01%) at 37°C. The progress of the reaction was monitored by anion exchange chromatography. Aliquots (50 μl) of the reaction mixture were withdrawn after different incubation times, mixed with an urea solution (100 μl, 6 M) and injected onto an anion exchange column (Poros 10 HQ, 10 μm, 4.6×100 mm, PerSeptive Biosystems, Germany). Compounds were eluted with aqueous potassium chloride (0.5 M for 5 min, followed by a linear gradient to 1 M in 30 min, 4 ml/min) in Tris chloride buffer (10 mM, pH 7.6).
The enzyme-catalyzed reaction was carried out in a mixture (500 μl) of cofactor free M-Taql (5 nmol, 10 μM), duplex oligodeoxynucleotide 3•4 (5 nmol, 10 μM), compound 9 (10 nmol, 20 μM), Tris acetate (20 mM, pH 6.0), potassium acetate (50 mM), magnesium acetate (10 mM) and Triton X-100 (0,01%) at 37° C. The progress of the reaction was monitored by anion exchange chromatography (Poros 10 HQ, 10 μm, 4,6×10 mm, PerSeptive Biosystems, Germany). Compounds were eluted with aqueous potassium chloride (0.2 M for 5 min, followed by a linear gradient to 0.5 M in 5 min and to 1 M in 30 min) in Tris chloride buffer (10 mM, pH 7.0). Complete conversion to a new product (containing DNA and protein) with a retention time of 7.9 min was observed after 15 h. […] Then, a solution (4 μl) of proteinase K (31 mg/ml), Tris chloride (50 mM, pH 8.0) and calcium chloride (1 mM) was added, and the reaction mixture was incubated at 37° C. for 1 h. The proteolytic fragmentation was monitored by anion exchange chromatography as described above. […]

[3] = biological target: T1, C5-cytosine DNA methyltransferase M•HhaI; assay: Fluorescent labeling of plasmid DNA (pUC19) using M•HhaI; assay type: biochemical, Haemophilus haemolyticus; details: M•HhaI 730 nM, pUC19 40 nM, compound 9 20 μM, pH 6.85, 37°C, 20 h
Description: The enzyme-catalyzed labeling reaction was carried out in a mixture (100 μl) of M-HhaI (730 nM), pUC19 DNA (40 nM, 17 recognition sites for M•HhaI), compound 9 (20 μM), Tris chloride (10 mM, pH 6.85), sodium chloride (50 mM), EDTA (0,5 mM) and P-mercaptoethanol (2 mM) at 37° C. A parallel control experiment was performed without M•HhaI. Aliquots of both incubations after 20 h reaction time were analyzed by anion exchange chromatography as described above (see example 2, 3.1). The obtained chromatograms are shown in FIG. 8 (A: UV detection at 260 nm; B: fluorescence detection).

[4] = biological target: T2, N6-adenine DNA methyltransferase M•TaqI; assay: Fluorescent labeling of plasmid DNA (pUC19) using M•TaqI; assay type: biochemical; details: M•TaqI 133 nM, pUC19 28 nM, compound 9 20 μM
Description: The enzyme-catalyzed labeling reaction was carried out in a mixture (500 μl) of cofactor free M•TaqI (133 nM), pUC19 DNA (28 nM, 4 recognition sites for M•TaqI), compound 9 (20 μM), Tris acetate (20 mM, pH 6,0), potassium acetate (50 mM), magnesium, acetate (10 mM) and Triton X-100 (0,01%) at 65° C. The progress of the reaction was monitored by anion exchange chromatography (NUCLEOGEN DEAE 4000-7, 7 μm, 125×6,2 mm, Machery-Nagel, Düren, Germany). Compounds were eluted with aqueous potassium chloride (0.2 M for 5 min followed by a linear gradient to 1 M in 30 min) in Tris chloride buffer (10 mM, pH 7.0) containing acetonitrile (20%). The chromatograms of the anion exchange chromatography after different incubation times are shown in FIG. 6 (A: UV detection at 260 nm; B: fluorescence detection). The delay between the observed UV absorption and the fluorescence is due to a spatial separation of the UV detector and the fluorescence detector. The labeling reaction yielding fluorescent pUC19 was completed after 8 h.

T2 sequence (P14385 whole entry): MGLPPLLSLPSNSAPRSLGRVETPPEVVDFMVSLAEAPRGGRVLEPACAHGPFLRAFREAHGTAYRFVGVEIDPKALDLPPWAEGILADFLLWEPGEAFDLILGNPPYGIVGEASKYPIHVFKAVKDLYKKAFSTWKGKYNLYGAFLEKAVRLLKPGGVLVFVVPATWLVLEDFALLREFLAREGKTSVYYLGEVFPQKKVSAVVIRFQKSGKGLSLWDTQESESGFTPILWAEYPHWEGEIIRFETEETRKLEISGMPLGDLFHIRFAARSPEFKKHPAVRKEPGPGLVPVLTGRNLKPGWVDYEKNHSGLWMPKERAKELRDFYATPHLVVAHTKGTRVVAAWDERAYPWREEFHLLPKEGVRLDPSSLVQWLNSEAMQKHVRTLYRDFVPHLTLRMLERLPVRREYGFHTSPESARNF

## Nc1ncnc2c1ncn2[C@@H]1O[C@H](CN2CC2)[C@@H](O)[C@H]1O [Compound 2, N-Adenosylaziridine]
[1]
  M•HhaI-catalyzed coupling of the cofactor to duplex oligodeoxynucleotide 6•7: quantitative
[2]; compound 2 1 mM
  M•TaqI-catalyzed coupling of the cofactor with DNA: quantitative, sequence- and base-specific

## CN(C)c1cccc2c(S(=O)(=O)NCCCCNc3nc4c(N)ncnc4n3[C@@H]3O[C@H](CN4CC4)C(O)[C@@H]3O)cccc12 (stereo partly shown) [Compound 9, 8-Amino[1″-(N″-dansyl)-4″-aminobutyl]-5′-(1-aziridinyl)-5′-deoxy adenosine]
[3]
  cofactor function in M•HhaI-catalyzed fluorescent labeling of pUC19: function as a cofactor for M•HhaI
[2]; compound 9 20 μM
  coupling reaction of the fluorescent cofactor with DNA catalyzed by M•TaqI: quantitative and base-specific
  time to complete conversion of duplex 3•4 to new product (containing DNA and protein): 15 h
[4]; 65°C, different incubation times
  fluorescence signal of pUC19 in anion exchange chromatography after labeling with M•TaqI: increase of the fluorescence signal with the incubation time
[4]; pH 6.0, 65°C
  time to completion of the labeling reaction yielding fluorescent pUC19: 8 h
